Results: US20060063751A1, “Novel fused heterocycles and uses thereof” (AstraZeneca AB, priority 2003, published 2006)
pIC50: −log10 of the molar value.

Molecular target: T1, recombinant HsEg5 motor domain (amino acids 1-369-8His) (Homo sapiens, UniProt P52732)
T1 construct: Enzyme was recombinant HsEg5 motor domain (amino acids 1-369-8His); 8His (C)
T1 sequence (P52732 1-369): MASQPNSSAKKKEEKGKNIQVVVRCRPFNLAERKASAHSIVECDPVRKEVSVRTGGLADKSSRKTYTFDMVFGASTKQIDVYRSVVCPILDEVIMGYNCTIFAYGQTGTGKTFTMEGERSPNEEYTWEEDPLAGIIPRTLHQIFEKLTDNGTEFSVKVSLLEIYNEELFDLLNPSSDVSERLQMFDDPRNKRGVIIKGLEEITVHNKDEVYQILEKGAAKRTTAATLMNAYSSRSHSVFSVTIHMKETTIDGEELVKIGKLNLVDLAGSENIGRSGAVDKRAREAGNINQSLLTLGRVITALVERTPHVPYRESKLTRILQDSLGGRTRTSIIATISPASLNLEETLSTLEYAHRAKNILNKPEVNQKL
Assay: Malachite Green Assay (Eg5 motor ATPase, phosphate liberated from ATP)
Type: biochemical
Procedure: Enzymatic activity of the Eg5 motor and effects of inhibitors was measured using a malchite green assay, which measures phosphate liberated from ATP, and has been used previously to measure the activity of kinesin motors (Hackney and Jiang, 2001). Enzyme was recombinant HsEg5 motor domain (amino acids 1-369-8His) and was added at a final concentration of 6 nM to 100 μl reactions. Buffer consisted of 25 mM PIPES/KOH, pH 6.8, 2 mM MgCl2, 1 mM EGTA, 1 mM dtt, 0.01% Triton X-100 and 5 μM paclitaxel. Malachite green/ammonium molybdate reagent was prepared as follows: for 800 ml final volume, 0.27 g of Malachite Green (J. T. Baker) was dissolved in 600 ml of H2O in a polypropylene bottle. […]
5 μl of compound diluted in 12% DMSO was added to the wells of 96 well plates. […] The reactions were then quenched by the addition of 150 μl malachite green/ammonium molybdate reagent, and absorbance read at 650 nanometers exactly 5 min after quench using a Spectramax Plus plate reader (Molecular Devices). Data was graphed and IC50s calculated using ExCel Fit (Microsoft).
Enzymatic activity of the Eg5 motor and effects of inhibitors was measured using a malachite green assay, which measures phosphate liberated from ATP, and has been used previously to measure the activity of kinesin motors (Hackney and Jiang, 2001). […] Data was graphed and IC50s calculated using ExCel Fit (Microsoft).

| pIC50 | SMILES |
| --- | --- |
| 6.87 | CCC(c1nc2snc(C)c2c(=O)n1Cc1ccccc1)N(CCCN)C(=O)c1cccc(Cl)c1Cl (single isomer, unassigned; (+)) [Section 3: Example A7, (+) N-(3-Amino-propyl)-N-[1-(5-benzyl-3-methyl-4-oxo-4,5-dihydro-isothiazolo[5,4-d]pyrimidin-6-yl)-propyl]-2,3-dichloro-benzamide hydrogen chloride] |
| 7.05 | CCC(c1nc2c(C)nsc2c(=O)n1Cc1ccccc1)N(CCCN)C(=O)c1ccc(C)cc1 (centres unmarked) [Section 2: Example E1, N-(3-Amino-propyl)-N-[1-(6-benzyl-3-methyl-7-oxo-6,7-dihydro-isothiazolo[4,5-d]pyrimidin-5-yl)-propyl]-4-methyl-benzamide hydrogen chloride] |
